We go through six compounds from article PMC2965138, “DEB025 (Alisporivir) Inhibits Hepatitis C Virus Replication by Preventing a Cyclophilin A Induced Cis-Trans Isomerisation in Domain II of NS5A” (PLoS ONE, 2010).

Values joined by “and” are separate entries in the source; they are usually repeats but may differ in a detail not shown here. Identical values can stand only once. Like-named read-outs stand apart in the source and are kept apart here.

In series [1] the test system is CsA^res HCV subgenomic replicon (Con1-GT1b) in Huh 9–13 cells. Further details: method as in PMID 19104013. To be noted: cited from earlier work.
The subject of series [2] is DEB025^res HCV subgenomic replicon (Con1-GT1b) in Huh 9–13 cells. Further details: method as in PMID 19104013. The conditions noted are these: cited from earlier work. The protocol: (§1) Replicon-containing cells were continuously passaged in these double-selection media. When cultures had adapted to replication in the presence of a particular concentration of DEB025 (i.e. no more massive cell death) the concentration was increased in steps of 0.21 µM (typically every 3 passages).

Series [3] deals with mutant GT1b subgenomic luciferase replicons in Huh7-Lunet cells. In kind it is cell-based, Hepatitis C virus genotype 1b. To be noted: for sensitivity of the generated mutant replicons compared to WT: site-directed mutant replicons, data not shown; for fold reduction in sensitivity (based on EC50-values) compared to WT replicon: luciferase assay. On the technique in general: Replicon systems follow genome replication, usually without infectious particles.

Series [4] relates to HCV subgenomic replicon (Con1-GT1b) in Huh 9–13 cells.
The subject of series [5] is recombinant replicon with DEB025^res NS5B gene in Huh7-Lunet cells. In kind it is cell-based, Hepatitis C virus genotype 1b. The conditions noted are these: entire NS5B gene of DEB025^res replicon in WT background, control NS5B from WT cells. As to the method:
(§2) For comparative reasons also the original unmanipulated vector was included in the analysis. […] Data are mean values ± standard deviations for at least three independent experiments. (C) Replication fitness of the different recombinant replicons. Huh7-Lunet cells were transiently transfected with each of the indicated replicon constructs and replicon RNA replication was quantified by means of a luciferase assay for 4 days post transfection. Data are normalized to the 4 h-value post electroporation to account for differences in electroporation efficiency and is expressed as percentage of the WT-value at 96 h post electroporation. Data are mean values ± standard deviations for at least two independent experiments.
(§3) RNA was isolated from either DEB025^res or WT HCV subgenomic replicon cells using the RNeasy mini kit (Qiagen). First-strand cDNA was synthesized using SuperScript II RT (Invitrogen). The NS5A or NS5B-containing regions were amplified in an AccuPrime Pfx DNA polymerase reaction (Invitrogen) for subsequent cloning into the WT Con1 plasmid. All constructs were sequenced to verify the correct manipulation.
Huh7-Lunet single-cell suspensions were prepared by trypsinization, washed twice with Opti-MEM® I (Invitrogen) and then resuspended at 1×10∧7 cells per ml in Cytomix containing 2 mM ATP and 5 mM glutathione. […]

For series [6], the system named is DEB025^res HCV subgenomic replicon (Con1-GT1b) in Huh 9–13 cells. The conditions noted are these: read-out: EC50, inhibition of HCV replicon RNA, DEB025^res Huh 9-13 culture, 72 h treatment, RT-qPCR, mean ± SD, at least three independent experiments. As to the method: as §1
(§4) HCV replicon RNA was quantified by means of RT-qPCR and is expressed as the percentage of HCV replicon RNA of the untreated control cells. Data are mean values±standard deviations for at least three independent experiments.
(§5) When cells suffered from compound pressure, G418 pressure was removed till cells recovered. […] Four independent resistance selection experiments were carried out, three with Huh 9–13 replicons and one with Huh 5–2 replicons.
(§6) HCV replication assays were performed and analysed using published procedures.

In series [7] the test system is CsA^res HCV subgenomic replicon (Con1-GT1b) in Huh 9–13 cells. The conditions noted are these: read-out: EC50, inhibition of HCV replicon RNA, CsA^res Huh 9-13 culture, 72 h treatment, RT-qPCR, mean ± SD, at least three independent experiments. As to the method:
as §1, §4, §5, §6

The test system of series [8] is replicons resistant to DAA inhibitors of different classes. To be noted: cited from earlier work.
The conditions of series [9]: cited from earlier work. An excerpt:
(§7) Several CsA-analogues, i.e. NIM811 [19], DEB025 and SCY-635 [20], are currently in preclinical and clinical development. […] We reported earlier on the potent in vitro anti-HCV activity of DEB025 [22] and on the particular characteristics of its anti-HCV activity.

Series [10] relates to calcineurin. The conditions noted are these: cited from earlier work.
From the text: as §7

Series [11] deals with HCV. To be noted: cited from earlier work; for viral load reduction: genotype 1 null/partial responders, 29 days; for decrease in viral load: phase II.
From the text: as §7

In series [12] the test system is recombinant replicon with DEB025^res NS5A sequence in Huh7-Lunet cells. The protocol:
(§8) The antiviral phenotype of this construct was evaluated in comparison with a construct into which the NS5A region derived from WT Huh 9–13 cells (which were cultured in parallel), was swapped.
as §2, §3
(§9) Huh7-Lunet single-cell suspensions were prepared by trypsinization, washed twice with Opti-MEM® I (Invitrogen) and then resuspended at 1×10∧7 cells per ml in Cytomix containing 2 mM ATP and 5 mM glutathione. Ten µg of in vitro transcribed RNA was mixed with 400 µl cell suspension in a cuvette with a gap width of 4 mm (VWR International) and an ECM 830 Electro Square Porator™ (BTX Harvard Apparatus) was used to deliver 5 pulses at 900 V, 99 µsec. Cells were immediately transferred to 20 ml complete DMEM and seeded as required for the assay. Briefly, 100 or 700 µl aliquots of the cell suspension were seeded in a 96- or 24-well plate (Iwaki), respectively, filled with serial dilutions of the antiviral molecule in complete DMEM.

Series [13] relates to recombinant replicon with WT NS5A sequence in Huh7-Lunet cells. To be noted: read-out: EC50, inhibition of replicon replication, replicon engineered to contain WT NS5A sequence, transient, 72 h, luciferase, mean ± SD. As to the method:
as §8, §2, §3, §9

The subject of series [14] is WT replicon RNA in Huh7-Lunet cells. The conditions noted are these: read-out: EC50, inhibition of replicon RNA, Huh7-Lunet stably transfected with WT replicon RNA, RT-qPCR, mean ± SD. As to the method:
(§10) HCV replicon RNA was quantified by means of RT-qPCR and is expressed as the percentage of HCV replicon RNA of the untreated control cells. Data are mean values ± standard deviations for at least three independent experiments.
(§11) One day before lipofection, Huh7-Lunet cured cells were seeded in a 25 cm^2 flasks at a cell density of 5.26×10^5 cells. Just before transfection, the cells were washed once with opti-MEM® I (Invitrogen) and incubated for 4 h at 37°C with transfection medium containing: 26.3 µg of RNA, DMRIE-C Reagent (Invitrogen) and opti-MEM I serum free medium. Four hours post transfection, medium was replaced by culture medium without G418. Depending on the proliferation of the cells, G418 was gradually added to the cultures (to a final concentration of 1 mg/ml) to generate stable cell lines.

Series [15] relates to DEB025^res replicon RNA in Huh7-Lunet cells. The protocol: as §10, §11
In series [16] the target is T1, CypA (Homo sapiens, UniProt P62937).
T1 construct: made in house
T1 sequence (P62937 whole entry): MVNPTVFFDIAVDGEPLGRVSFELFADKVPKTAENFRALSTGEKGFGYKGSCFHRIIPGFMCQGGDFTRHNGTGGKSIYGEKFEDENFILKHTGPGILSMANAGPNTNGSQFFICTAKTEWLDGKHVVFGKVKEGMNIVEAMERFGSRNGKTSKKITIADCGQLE
To be noted: cited from earlier work.

The test system of series [17] is WT HCV subgenomic replicon (Con1-GT1b) in Huh 9–13 cells.
From the text: Huh7 cells containing subgenomic HCV genotype 1b replicon I377/NS3-3′/wt (Huh 9–13) [47], [48] and I389luc-ubi-neo/NS3-3′/5.1 (Huh 5–2) were used to select for resistance.
The test system of series [18] is JFH1-derived subgenomic replicon (GT2a). The conditions noted are these: replicon with mutation near NS5A/NS5B cleavage site (position 464); cited from earlier work.
Series [19] has as its system CypA-NS5A interaction.
Experimental: We next studied whether the NS5A mutations, either alone or in combination, have an influence on (i) the binding of NS5A to CypA and (ii) the sensitivity of the CypA-NS5A interaction to DEB025.
Glutathione beads were added to the GST-CypA/NS5A-His mixture for 30 min at 4°C and washed. Bound material was eluted and analyzed by Western blotting using anti-His and anti-CypA antibodies. (C) The percentage of NS5A pulled down in the presence of increasing concentrations of DEB025, relative to the amount of NS5A pulled down in the absence of the drug.
NS5A mutants were created by site-directed mutagenesis.
Pull-down experiments were conducted as described previously [55]. Briefly, GST-CypA (100 ng) was mixed with 10 ng of NS5A-His in a total volume of 200 µl for 3 h at 4°C on a rotating wheel. Glutathione beads (25 µl) were added to the GST-CypA/NS5A-His mixture for 30 min at 4°C and samples were washed 3 times thereafter. […] Bound material was then analyzed by Western blotting using anti-CypA and anti-His antibodies as described previously [9]. […] To calculate the percent of NS5A pulled down relative to the amount of NS5A pulled down in the absence of the drug scans of ECL-developed films were analyzed by Bio-Rad densitometer model 620 and quantified by Bio-Rad Program Manager software (Bio-Rad Laboratories, Inc., Hercules, CA). […]

`[N-]=[N+]=N[C@]1(CO)O[C@@H](n2ccc(N)nc2=O)[C@H](O)[C@@H]1O` [4′-azidocytidine]: in [1], the “antiviral activity against CsA^res replicons compared to WT” value was “retained WT-antiviral activity”. Besides, the “antiviral activity against DEB025^res replicons compared to WT” value in series [2] is “retained WT-antiviral activity”.
As for `CNC(=O)c1c(-c2ccc(F)cc2)oc2cc(N(CCO)S(C)(=O)=O)c(C3CC3)cc12` [HCV796, reference compound], in series [3], the “sensitivity of the generated mutant replicons compared to WT” value was “retained WT-activity”.
For `COc1ccc2c(O[C@@H]3C[C@H]4C(=O)N[C@]5(C(=O)O)C[C@H]5/C=C\CCCCC[C@H](NC(=O)OC5CCCC5)C(=O)N4C3)cc(-c3csc(NC(C)C)n3)nc2c1` [BILN2061], the “antiviral activity against CsA^res replicons compared to WT” value in series [1] is “retained WT-antiviral activity”. The “antiviral activity against DEB025^res replicons compared to WT” value in series [2] is “retained WT-antiviral activity”.
In the case of `C/C=C/C[C@@H](C)[C@@H](O)[C@H]1C(=O)N[C@@H](CC)C(=O)N(C)[C@H](C)C(=O)N(CC)[C@@H](C(C)C)C(=O)N[C@@H](C(C)C)C(=O)N(C)[C@@H](CC(C)C)C(=O)N[C@@H](C)C(=O)N[C@H](C)C(=O)N(C)[C@@H](CC(C)C)C(=O)N(C)[C@@H](CC(C)C)C(=O)N(C)[C@@H](C(C)C)C(=O)N1C` [DEB025, Alisporivir], in series [4] (Huh 9-13, stepwise increasing drug with G418, on average), the “passages of selective pressure needed to select resistant replicons” value is 35 passages. The “time of selective pressure needed to select resistant replicons” value in [4] (Huh 9-13 / Huh 5-2, stepwise increasing drug with G418, average (four independent experiments for DEB025)) was 20 weeks. For the same compound, in series [3], the “fold change in sensitivity compared to WT” value is 1.28 fold and 1.93 fold. Moreover, the “fold reduction in sensitivity (based on EC50-values) compared to WT replicon” value is 4.33 fold in [3] (mutant A241P + R262Q + R318W + D320E); 3.92 fold and 3.9 fold in series [3] (mutant NS5A D320E); about 2 fold in series [3] (mutant NS5A R318W); 3.79 fold in [3] (mutant R318W + D320E). In addition, in series [3] (mutant NS5B I432V, luciferase assay (Figure S1)), the “effect of NS5B I432V on antiviral activity” value is “neither reduced the antiviral activity”. In [5], the “effect of DEB025^res NS5B gene in WT background on antiviral activity” value is reported as “No reduction in antiviral activity”. In addition, the EC50 in series [6] was found to be 2050 ± 560 nM; in series [7], 460 ± 260 nM; in series [12] (read-out: EC50, inhibition of replicon replication, replicon engineered to contain DEB025^res NS5A sequence, transient, 72 h, luciferase, mean ± SD, SD), 390 ± 150 nM; in [13] it was 40 ± 10 nM; in series [14] it was 40 ± 10 nM; in [15] (read-out: EC50, inhibition of replicon RNA, Huh7-Lunet stably transfected with RNA from DEB025^res culture, RT-qPCR, mean ± SD, SD), 440 ± 70 nM. For the same compound, the concentration for a half-maximal effect (EC50) in series [17] (read-out: EC50, inhibition of HCV replicon RNA, WT Huh 9-13 culture, 72 h treatment, RT-qPCR, mean ± SD, at least three independent experiments, SD) came to 30 ± 10 nM. The “activity against replicons resistant to DAA inhibitors compared to WT” value in series [8] is recorded as “retained WT-activity”. Further, the adverse finding entry in series [9] (1000 mg dose, returned to baseline after treatment cessation) is “isolated and transient hyperbilirubinemia”. Besides, the tolerability result in [9] (lower doses regimens) is “very well tolerated”. Also, in series [10], the inhibition of calcineurin result was “do not inhibit calcineurin”. For the same compound, the viral load reduction in series [11] (400 mg daily (with initial loading dose) combined with pegIFN/RBV) was −1.96 log10 IU/ml; in series [11] (800 mg daily combined with pegIFN/RBV), −2.38 log10 IU/ml. For the same compound, in series [11] (phase I, HCV/HIV-coinfected patients, monotherapy 1200 mg BID, after 15 days), the “mean maximal decrease in HCV viral load” value was −3.6 log10 IU/ml. Also, the “decrease in viral load” value is given as −4.75 log10 IU/ml in series [11] (treatment-naïve genotype 1 and 4 patients, therapy based on 1000 mg/day DEB025 (combined with pegIFN-α-2a)); “up to −5.89 log10 IU/ml” in series [11] (treatment-naïve genotype 2 and 3 patients). In series [12] (replicon with DEB025^res NS5A vs replicon with WT NS5A), the “fold less active than in replicon with WT NS5A sequence” value was 10 fold. The “fold less active than in WT-transfected cell line” value in [15] (cells stably transfected with RNA from DEB025^res culture vs WT, on average) worked out at 10 fold. The “affinity to CypA compared with CsA” value in series [16] is reported as “superior to that of CsA to CypA”. Further, the “effect on WT replicon replication at a fixed concentration” value in series [17] (2.05 µM) is “completely inhibits WT replicon replication”. The “fold reduced sensitivity of resistant JFH1-derived replicon” value in series [18] is on record as about 5 fold. In addition, the “effect on the CypA-NS5A interaction” value in series [19] (GST-CypA and His-tagged NS5A pull down, increasing drug concentrations) is recorded as “inhibit the CypA-NS5A interaction in a dose-dependent manner”. Further, the “effect on interactions between CypA and WT or mutated NS5A” value in series [19] (WT versus mutated NS5A, pull down) was “equally disrupted”.
For `C[C@@]1(O)[C@H](O)[C@@H](CO)O[C@H]1n1ccc(N)nc1=O` [2′-C-methylcytidine], the “sensitivity of the generated mutant replicons compared to WT” value in series [3] is given as “retained WT-activity”. For the same compound, in [1], the “antiviral activity against CsA^res replicons compared to WT” value is listed as “retained WT-antiviral activity”. Moreover, the “antiviral activity against DEB025^res replicons compared to WT” value in [2] is “retained WT-antiviral activity”.
Take `CCC[C@H](NC(=O)[C@@H]1[C@H]2CCC[C@H]2CN1C(=O)[C@@H](NC(=O)[C@@H](NC(=O)c1cnccn1)C1CCCCC1)C(C)(C)C)C(=O)C(=O)NC1CC1` [VX-950]: the “sensitivity of the generated mutant replicons compared to WT” value in series [3] is on record as “retained WT-activity”. Also, the “antiviral activity against CsA^res replicons compared to WT” value in [1] is “retained WT-antiviral activity”. In [2], the “antiviral activity against DEB025^res replicons compared to WT” value is “retained WT-antiviral activity”.

As a reminder, the EC50 is the concentration giving half of the maximal effect.
